Test results taken from patent publication US20250122225A1, “MASP-2 INHIBITORS AND METHODS OF USE” (Omeros Corporation, priority 2023, published 2025).

How the values were obtained:
MASP-2 (CCP1-CCP2-SP) = molecular target: T1, MASP-2 (CCP1-CCP2-SP) (Homo sapiens, UniProt O00187); test: Enzymatic assay for MASP-2 inhibitory activity (fluorogenic substrate); assay type: biochemical
T1 construct: 15 μL of Enzyme MASP-2 (CCP1-CCP2-SP) in Assay Buffer
Protocol: The MASP-2 assay utilizes a fluorogenic substrate, based on the cleavage site for its natural substrate C2. The assay was run at room temperature in an assay buffer containing 20 mM HEPES, pH 7.4, 140 mM NaCl and 0.1% Tween 20. Assay parameters were adjusted such that the assay was linear with respect to time, enzyme, and substrate concentrations. Under the optimized assays conditions, IC50 values were equivalent to Ki values, except in the few cases of “tight binding” inhibitors. Cases of “tight binding” or possible “slow binding” inhibitors were handled by the methods described in Copeland R. A. (2013) Evaluation of Enzyme Inhibitors in Drug Discovery. 2nd Ed., John Wiley and Sons, Inc., Chapters 5-7.
The MASP-2 assay protocol was carried out as follows. Test compounds were serially diluted in DMSO and then 100 nL of each dilution was transferred to the assay plate(s). 10 μL of Assay Buffer was added, followed by 15 μL of Enzyme MASP-2 (CCP1-CCP2-SP) in Assay Buffer. 15 μL of Substrate in Assay Buffer was then added and the mixture was mixed to start the reaction. After 20 min at room temperature, 15 μL of a stop solution (0.1 M acetic acid) was added, the sample was mixed, and the plates were read on a SpectraMax i3x Microplate Reader with the data exported as an Excel file. Each assay plate included a “no inhibitor” (DMSO only) control, a “no enzyme” control, and a reference inhibitor control. % Activity values=100*(average test comp. fluorescence−average “no enzyme” fluorescence)/(average “DMSO only” fluorescence−average “no enzyme” fluorescence). IC50 and Ki replicate values were very reproducible, with values well within ±2-fold.

human α-thrombin = molecular target: T2, human α-thrombin (Homo sapiens, UniProt P00734); test: Enzymatic assay for thrombin (fluorogenic peptide substrate Boc-VPR-AMC); assay type: biochemical
T2 construct: enzyme (human α-thrombin (BioPharm® Lab.)) in assay buffer; purchased BioPharm® Lab
Protocol: The thrombin assay utilizes a fluorogenic peptide substrate (Boc-VPR-AMC (R&D Systems) and was run at room temperature in an assay buffer containing 20 mM Hepes, pH 7.4, 140 mM NaCl and 0.1% Tween 20. Assay parameters were adjusted such that the assay was linear with respect to time, enzyme, and substrate concentrations. Under these optimized assays conditions, IC50 values were equivalent to Ki values, except in a few cases of “tight binding” inhibitors. Cases of “tight binding” or possible “slow binding” inhibitors were handled by the methods described in Copeland R. A. (2013) Evaluation of Enzyme Inhibitors in Drug Discovery. 2nd Ed. John Wiley and Sons, Inc., Chapters 5-7.
The thrombin assay protocol was carried out as follows. Test compounds were serially diluted in DMSO and then 100 nL of each dilution was transferred to the assay plate(s). 10 μL of Assay Buffer was added, followed by 15 μL of enzyme (human α-thrombin (BioPharm® Lab.)) in assay buffer. 15 μL of substrate in assay buffer was then added and the sample mixed to start the reaction. After 20 min at room temperature, 15 μL of a stop solution (0.1 M acetic acid) was added, the sample was mixed, and the plates were read on a SpectraMax® i3x Microplate Reader with the data exported as Excel files. Each assay plate included a “no inhibitor” (DMSO only) control, a “no enzyme” control, and a reference inhibitor control. % Activity values=100*(ave. test comp. fluorescence−ave. “no enz” fluorescence)/(ave. “DMSO only” fluorescence−ave. “no enz” fluorescence). IC50 and Ki values were very reproducible, with values falling well within ±2-fold.

T1 sequence (O00187 445-686 limits assumed): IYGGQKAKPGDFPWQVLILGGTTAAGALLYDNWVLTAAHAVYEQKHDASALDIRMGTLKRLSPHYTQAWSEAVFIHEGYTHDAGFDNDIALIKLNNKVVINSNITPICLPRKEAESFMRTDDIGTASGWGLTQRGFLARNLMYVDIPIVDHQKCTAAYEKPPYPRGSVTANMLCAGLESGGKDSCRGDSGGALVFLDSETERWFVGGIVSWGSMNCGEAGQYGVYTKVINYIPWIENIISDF
T1 sequence (O00187 287-444 partner limits assumed): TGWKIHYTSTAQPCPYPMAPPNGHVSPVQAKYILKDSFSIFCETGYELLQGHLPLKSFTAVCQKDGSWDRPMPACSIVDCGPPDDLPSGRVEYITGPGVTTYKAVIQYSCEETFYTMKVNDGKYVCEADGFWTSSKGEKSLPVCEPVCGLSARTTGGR

| Ki (MASP-2 (CCP1-CCP2-SP)) | Ki (human α-thrombin) | SMILES |
| --- | --- | --- |
| < 500 nM | 500 to 2500 nM | Cc1ccc(CNc2ncc3n(c2=O)[C@H](C(=O)NCc2cc4cnccc4[nH]2)CC3)cc1C [Compound 44, (S)-N-((1H-pyrrolo[3,2-c]pyridin-2-yl)methyl)-3-((3,4-dimethylbenzyl)amino)-4-oxo-4,6,7,8-tetrahydropyrrolo[1,2-a]pyrazine-6-carboxamide] |
| < 500 nM | < 500 nM | CCc1cccc(CNc2ncc3n(c2=O)[C@H](C(=O)NCc2cc4cnccc4[nH]2)CC3)c1 [Compound 45, (S)-N-((1H-pyrrolo[3,2-c]pyridin-2-yl)methyl)-3-((3-ethylbenzyl)amino)-4-oxo-4,6,7,8-tetrahydropyrrolo[1,2-a]pyrazine-6-carboxamide] |
| < 500 nM | < 500 nM | CCc1cccc(CNc2ncc3n(c2=O)[C@H](C(=O)NCc2ccc(N)nc2C)CC3)c1 [Compound 46, (S)-N-((6-amino-2-methylpyridin-3-yl)methyl)-3-((3-ethylbenzyl)amino)-4-oxo-4,6,7,8-tetrahydropyrrolo[1,2-a]pyrazine-6-carboxamide] |
| < 500 nM | < 500 nM | Cc1nc(N)ccc1CNC(=O)[C@@H]1CCc2cnc(NCc3cccc(CO)c3)c(=O)n21 [Compound 47, (S)-N-((6-amino-2-methylpyridin-3-yl)methyl)-3-((3-(hydroxymethyl)benzyl)amino)-4-oxo-4,6,7,8-tetrahydropyrrolo[1,2-a]pyrazine-6-carboxamide] |
| < 500 nM | < 500 nM | COc1cc(C)cc(CNc2ncc3n(c2=O)[C@H](C(=O)NCc2ccc(N)nc2C)CC3)c1 [Compound 49, (S)-N-((6-amino-2-methylpyridin-3-yl)methyl)-3-((3-methoxy-5-methylbenzyl)amino)-4-oxo-4,6,7,8-tetrahydropyrrolo[1,2-a]pyrazine-6-carboxamide] |
| < 500 nM | 10000 to 25000 nM | Cc1cc(C)cc(CNc2ncc3n(c2=O)[C@H](C(=O)NCc2cc4cnc(C)cc4[nH]2)CC3)c1 [Compound 50, (S)-3-((3,5-dimethylbenzyl)amino)-N-((6-methyl-1H-pyrrolo[3,2-c]pyridin-2-yl)methyl)-4-oxo-4,6,7,8-tetrahydropyrrolo[1,2-a]pyrazine-6-carboxamide] |
| < 500 nM | 2500 to 10000 nM | COc1cc(C)cc(CNc2ncc3n(c2=O)[C@H](C(=O)NCc2cc4cnc(C)cc4[nH]2)CC3)c1 [Compound 51, (S)-3-((3-methoxy-5-methylbenzyl)amino)-N-((6-methyl-1H-pyrrolo[3,2-c]pyridin-2-yl)methyl)-4-oxo-4,6,7,8-tetrahydropyrrolo[1,2-a]pyrazine-6-carboxamide] |
| < 500 nM | < 500 nM | Cc1ccccc1CNc1ncc2n(c1=O)[C@H](C(=O)NCc1ccc(N)nc1C)CC2 [Compound 52, (S)-N-((6-amino-2-methylpyridin-3-yl)methyl)-3-((2-methylbenzyl)amino)-4-oxo-4,6,7,8-tetrahydropyrrolo[1,2-a]pyrazine-6-carboxamide] |
| < 500 nM | 500 to 2500 nM | Cc1ccccc1CNc1ncc2n(c1=O)[C@H](C(=O)NCc1cc3cnccc3[nH]1)CC2 [Compound 53, (S)-N-((1H-pyrrolo[3,2-c]pyridin-2-yl)methyl)-3-((2-methylbenzyl)amino)-4-oxo-4,6,7,8-tetrahydropyrrolo[1,2-a]pyrazine-6-carboxamide] |
| < 500 nM | 500 to 2500 nM | O=C(NCc1cc2cnccc2[nH]1)[C@@H]1CCc2cnc(NCc3cc(F)cc(F)c3)c(=O)n21 [Compound 54, (S)-N-((1H-pyrrolo[3,2-c]pyridin-2-yl)methyl)-3-((3,5-difluorobenzyl)amino)-4-oxo-4,6,7,8-tetrahydropyrrolo[1,2-a]pyrazine-6-carboxamide] |
| < 500 nM | < 500 nM | Cc1ccc(C)c(CNc2ncc3n(c2=O)[C@H](C(=O)NCc2ccc(N)nc2C)CC3)c1 [Compound 55, (S)-N-((6-amino-2-methylpyridin-3-yl)methyl)-3-((2,5-dimethylbenzyl)amino)-4-oxo-4,6,7,8-tetrahydropyrrolo[1,2-a]pyrazine-6-carboxamide] |
| < 500 nM | 500 to 2500 nM | Cc1ccc(C)c(CNc2ncc3n(c2=O)[C@H](C(=O)NCc2cc4cnccc4[nH]2)CC3)c1 [Compound 56, (S)-N-((1H-pyrrolo[3,2-c]pyridin-2-yl)methyl)-3-((2,5-dimethylbenzyl)amino)-4-oxo-4,6,7,8-tetrahydropyrrolo[1,2-a]pyrazine-6-carboxamide] |
| < 500 nM | 10000 to 25000 nM | Cc1ccc(C)c(CNc2ncc3n(c2=O)[C@H](C(=O)NCc2cc4cnc(C)cc4[nH]2)CC3)c1 [Compound 57, (S)-3-((2,5-dimethylbenzyl)amino)-N-((6-methyl-1H-pyrrolo[3,2-c]pyridin-2-yl)methyl)-4-oxo-4,6,7,8-tetrahydropyrrolo[1,2-a]pyrazine-6-carboxamide] |
| < 500 nM | > 25000 nM | Cc1cc2[nH]c(CNC(=O)[C@@H]3CCc4cnc(NCc5cccc(C)c5C)c(=O)n43)cc2cn1 [Compound 58, (S)-3-((2,3-dimethylbenzyl)amino)-N-((6-methyl-1H-pyrrolo[3,2-c]pyridin-2-yl)methyl)-4-oxo-4,6,7,8-tetrahydropyrrolo[1,2-a]pyrazine-6-carboxamide] |
| < 500 nM | 500 to 2500 nM | Cc1cccc(CNc2ncc3n(c2=O)[C@H](C(=O)NCc2cc4cnccc4[nH]2)CC3)c1C [Compound 59, (S)-N-((1H-pyrrolo[3,2-c]pyridin-2-yl)methyl)-3-((2,3-dimethylbenzyl)amino)-4-oxo-4,6,7,8-tetrahydropyrrolo[1,2-a]pyrazine-6-carboxamide] |
| < 500 nM | < 500 nM | Cc1cccc(CNc2ncc3n(c2=O)[C@H](C(=O)NCc2ccc(N)nc2C)CC3)c1C [Compound 60, (S)-N-((6-amino-2-methylpyridin-3-yl)methyl)-3-((2,3-dimethylbenzyl)amino)-4-oxo-4,6,7,8-tetrahydropyrrolo[1,2-a]pyrazine-6-carboxamide] |
| < 500 nM | 2500 to 10000 nM | Cc1cc2[nH]c(CNC(=O)[C@@H]3CCc4cnc(NCc5cccc(C)c5F)c(=O)n43)cc2cn1 [Compound 61, (S)-3-((2-fluoro-3-methylbenzyl)amino)-N-((6-methyl-1H-pyrrolo[3,2-c]pyridin-2-yl)methyl)-4-oxo-4,6,7,8-tetrahydropyrrolo[1,2-a]pyrazine-6-carboxamide] |
| < 500 nM | < 500 nM | Cc1cccc(CNc2ncc3n(c2=O)[C@H](C(=O)NCc2ccc(N)nc2C)CC3)c1F [Compound 62, (S)-N-((6-amino-2-methylpyridin-3-yl)methyl)-3-((2-fluoro-3-methylbenzyl)amino)-4-oxo-4,6,7,8-tetrahydropyrrolo[1,2-a]pyrazine-6-carboxamide] |
| < 500 nM | 500 to 2500 nM | Cc1ccc(F)cc1CNc1ncc2n(c1=O)[C@H](C(=O)NCc1cc3cnccc3[nH]1)CC2 [Compound 63, (S)-N-((1H-pyrrolo[3,2-c]pyridin-2-yl)methyl)-3-((5-fluoro-2-methylbenzyl)amino)-4-oxo-4,6,7,8-tetrahydropyrrolo[1,2-a]pyrazine-6-carboxamide] |
| < 500 nM | 10000 to 25000 nM | Cc1cc2[nH]c(CNC(=O)[C@@H]3CCc4cnc(NCc5cc(F)ccc5C)c(=O)n43)cc2cn1 [Compound 64, (S)-3-((5-fluoro-2-methylbenzyl)amino)-N-((6-methyl-1H-pyrrolo[3,2-c]pyridin-2-yl)methyl)-4-oxo-4,6,7,8-tetrahydropyrrolo[1,2-a]pyrazine-6-carboxamide] |
| < 500 nM | < 500 nM | Cc1ccc(F)cc1CNc1ncc2n(c1=O)[C@H](C(=O)NCc1ccc(N)nc1C)CC2 [Compound 65, (S)-N-((6-amino-2-methylpyridin-3-yl)methyl)-3-((5-fluoro-2-methylbenzyl)amino)-4-oxo-4,6,7,8-tetrahydropyrrolo[1,2-a]pyrazine-6-carboxamide] |
